# Test results taken from US7276603B2, “Benzofuranyl-and benzothienyl-piperazinyl quinolines and methods of their use” (Wyeth, priority 2003, dated 2007).
# How the values were obtained:
# human 5-HT1A receptors = biological target: T1, human 5-HT1A receptors (Homo sapiens, UniProt P08908); assay: displacement of [3H] 8-OH-DPAT from the 5-HT1A serotonin receptor; assay type: binding; settings: CHO cells stably transfected with human 5-HT1A receptors
# T1 construct: expressed in transfected cells; host or cells: CHO cells
# T1 sequence (P08908 1-422): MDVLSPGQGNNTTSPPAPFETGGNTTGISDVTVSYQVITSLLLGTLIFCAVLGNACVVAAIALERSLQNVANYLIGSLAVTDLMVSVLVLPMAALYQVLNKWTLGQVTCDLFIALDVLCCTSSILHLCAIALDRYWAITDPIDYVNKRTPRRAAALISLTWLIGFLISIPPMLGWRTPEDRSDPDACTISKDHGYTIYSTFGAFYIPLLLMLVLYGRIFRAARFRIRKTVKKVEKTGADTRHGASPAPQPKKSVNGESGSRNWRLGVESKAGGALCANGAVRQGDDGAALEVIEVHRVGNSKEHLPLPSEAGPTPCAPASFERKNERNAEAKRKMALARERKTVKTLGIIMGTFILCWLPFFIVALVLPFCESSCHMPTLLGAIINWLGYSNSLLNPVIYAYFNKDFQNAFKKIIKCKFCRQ
# 5-HT transporter = 5-HT transporter (Rattus norvegicus, UniProt P31652); assay: Rat Brain 3H-Paroxetine Binding Assay (RB 5HT Transporter); settings: rat frontal cortical membranes; 3H-paroxetine 0.1 nM, 60 min, 25° C.
# 5-HT transporter, sequence (P31652 whole entry): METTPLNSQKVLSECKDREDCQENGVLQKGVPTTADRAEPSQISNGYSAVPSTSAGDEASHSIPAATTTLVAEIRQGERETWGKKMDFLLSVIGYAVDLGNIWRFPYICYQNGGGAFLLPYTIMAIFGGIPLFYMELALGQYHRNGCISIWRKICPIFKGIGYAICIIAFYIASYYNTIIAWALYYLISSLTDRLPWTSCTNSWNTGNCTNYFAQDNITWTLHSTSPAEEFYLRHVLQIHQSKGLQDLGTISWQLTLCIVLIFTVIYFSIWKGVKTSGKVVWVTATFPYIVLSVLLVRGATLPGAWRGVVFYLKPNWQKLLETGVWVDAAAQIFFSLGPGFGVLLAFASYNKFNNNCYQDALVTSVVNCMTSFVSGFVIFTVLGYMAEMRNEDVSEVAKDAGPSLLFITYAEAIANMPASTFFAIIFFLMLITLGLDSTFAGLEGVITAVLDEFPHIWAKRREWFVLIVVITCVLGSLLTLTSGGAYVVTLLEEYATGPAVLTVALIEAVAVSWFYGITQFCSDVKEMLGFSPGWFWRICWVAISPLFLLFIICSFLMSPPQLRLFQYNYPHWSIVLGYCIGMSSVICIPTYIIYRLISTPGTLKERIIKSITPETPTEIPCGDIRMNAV
# Source text: Rat Brain ^3H-Paroxetine Binding Assay (RB 5HT Transporter):
# This assay was used to determine a compound's affinity of the 5-HT transporter.
# All reactions were terminated by the addition of ice cold Tris buffer followed by rapid filtration using a Tom Tech filtration device to separate bound from free ^3H-paroxetine.
Compound,Ki (human 5-HT1A receptors) [nM],Ki (5-HT transporter) [nM],melting point [°C]
"COc1cccc2c1occ2[C@H]1CC[C@H](N2CCN(c3cc(F)cc4cccnc34)CC2)CC1 [Compound 60, 6-fluoro-8-{4-[4-trans(7-methoxy-1-benzofuran-3-yl)cyclohexyl]-1-piperazinyl}quinoline]",0.16,50,195 to 197
"Fc1cc(N2CCN([C@H]3CC[C@H](c4csc5ccc(F)cc54)CC3)CC2)c2ncccc2c1 [Compound 48, 6-fluoro-8-{4-[4-trans(5-fluoro-1-benzothien-3-yl)cyclohexyl]piperazin-1-yl}quinoline]",0.28,155,143 to 144
"COc1ccc2occ(CCN3CCN(c4cc(Cl)cc5cccnc45)CC3)c2c1 [Compound 22, 8-{4-[2-(5-methoxy-1-benzofuran-3-yl)ethyl]-1-piperazinyl}-6-chloro-quinoline]",2.69,2,72
"COc1cccc2c1occ2[C@H]1CC[C@@H](N2CCN(c3ccc(F)c4cccnc34)CC2)CC1 [Compound 57, 5-fluoro-8-{4-[4-cis(7-methoxy-1-benzofuran-3-yl)cyclohexyl]-1-piperazinyl}quinoline]",0.4,163,143 to 146
"COc1cccc2c1occ2[C@H]1CC[C@H](N2CCN(c3cccc4cccnc34)CC2)CC1 [Compound 62, 8-{4-[4-trans(7-methoxy-1-benzofuran-3-yl)cyclohexyl]-1-piperazinyl}quinoline]",0.26,46,195 to 197
"Fc1ccc(N2CCN([C@H]3CC[C@@H](c4coc5ccccc54)CC3)CC2)c2ncccc12 [Compound 53, 8-{4-[4-cis(1-benzofuran-3-yl)cyclohexyl]-1-piperazinyl}-5-fluoroquinoline]",1.74,208,142 to 144
"COc1cccc2c1occ2[C@H]1CC[C@@H](N2CCN(c3cccc4cccnc34)CC2)CC1 [Compound 61, 8-{4-[4-cis(7-methoxy-1-benzofuran-3-yl)cyclohexyl]-1-piperazinyl}quinoline]",41.4,27,66 to 67
"Fc1ccc2scc([C@H]3CC[C@@H](N4CCN(c5ccc(Cl)c6cccnc56)CC4)CC3)c2c1 [Compound 51, 5-chloro-8-{4-[4-cis(5-fluoro-1-benzothien-3-yl)cyclohexyl]piperazin-1-yl}quinoline]",4.14,133,192 to 197
"Fc1cc(N2CCN(C3CCC(c4cc5ccccc5o4)CC3)CC2)c2ncccc2c1 (stereo not drawn) [Compound 69, 8-[4-(4-benzofuran-2-yl-yclohexyl)-piperazin-1-yl]-6-fluoro-quinoline]",16.3,106,91 to 93
"Fc1cc(N2CCN([C@H]3CC[C@H](c4csc5ccccc54)CC3)CC2)c2ncccc2c1 [Compound 44, 8-{4-[4-trans(1-benzothien-3-yl)cyclohexyl]-1-piperazinyl}-6-fluoroquinoline]",130,380,195
"COc1cccc2c1occ2[C@H]1CC[C@@H](N2CCN(c3cc(F)cc4cccnc34)CC2)CC1 [Compound 59, 6-fluoro-8-{4-[4-cis(7-methoxy-1-benzofuran-3-yl)cyclohexyl]-1-piperazinyl}quinoline]",1.93,48,75 to 83
"COc1ccc2occ([C@H]3CC[C@H](N4CCN(c5cc(F)cc6cccnc56)CC4)CC3)c2c1 [Compound 68, 6-fluoro-8-{4-[4-trans(5-methoxy-1-benzofuran-3-yl)cyclohexyl]piperazin-1-yl}quinoline]",0.22,121,152 to 155
"Fc1cc(N2CCN([C@H]3CC[C@@H](c4csc5ccccc54)CC3)CC2)c2ncccc2c1 [Compound 43, 8-{4-[4-cis(1-benzothien-3-yl)cyclohexyl]-1-piperazinyl}-6-fluoroquinoline]",1.17,311,147 to 151
"COc1ccc2occ([C@H]3CC[C@@H](N4CCN(c5cc(F)cc6cccnc56)CC4)CC3)c2c1 [Compound 67, 6-fluoro-8-{4-[4-cis(5-methoxy-1-benzofuran-3-yl)cyclohexyl]piperazin-1-yl}quinoline]",14.4,146,153 to 160
COc1cc(N2CCN([C@H]3CC[C@@H](c4cc5ccccc5s4)CC3)CC2)c2ncccc2c1 [Compound 70],1550,47,184 to 186
"Fc1ccc(N2CCN([C@H]3CC[C@H](c4coc5ccccc54)CC3)CC2)c2ncccc12 [Compound 54, 8-{4-[4-trans(1-benzofuran-3-yl)cyclohexyl]-1-piperazinyl}-5-fluoroquinoline]",25.1,38,162 to 164
"Fc1cc(N2CCN([C@H]3CC[C@H](c4coc5ccccc54)CC3)CC2)c2ncccc2c1 [Compound 56, 8-{4-[4-trans(1-benzofuran-3-yl)cyclohexyl]-1-piperazinyl}-6-fluoroquinoline]",16.6,77,195 to 197
"Clc1cc(N2CCN([C@H]3CC[C@H](c4csc5ccccc54)CC3)CC2)c2ncccc2c1 [Compound 42, 8-{4-[4-trans(1-benzothien-3-yl)cyclohexyl]-1-piperazinyl}-6-chloroquinoline]",140,157,143 to 144
"COc1ccc2occ(CCN3CCN(c4cccc5cccnc45)CC3)c2c1 [Compound 21, 8-{4-[2-(5-methoxy-1-benzofuran-3-yl)ethyl]-1-piperazinyl}-quinoline]",2.83,7.25,78
"COc1cc(N2CCN([C@H]3CC[C@H](c4csc5ccccc54)CC3)CC2)c2ncccc2c1 [Compound 46, 8-{4-[4-trans (1-benzothien-3-yl)cyclohexyl]-1-piperazinyl}-6-methoxyquinoline]",126,21,166 to 168
"Clc1cc(N2CCN([C@H]3CC[C@@H](c4csc5ccccc54)CC3)CC2)c2ncccc2c1 [Compound 41, 8-{4-[4-cis-(1-benzothien-3-yl)cyclohexyl]-1-piperazinyl}-6-chloroquinoline]",2.25,65,164 to 165
"COc1cc(N2CCN([C@H]3CC[C@@H](c4csc5ccccc54)CC3)CC2)c2ncccc2c1 [Compound 45, 8-{4-[4-cis(1-benzothien-3-yl)cyclohexyl]-1-piperazinyl}-6-methoxyquinoline]",1.73,259,148 to 150
